According to patent EP0443518A2, “Pharmaceutical containing episialo complex carbohydrate” (MECT CORPORATION, priority 1990, dated 1991):
“Also recorded” adds a separate entry of the source.

Assays:
[1] = tested on: normal sera derived from C57BL/6 femal mice; assay: ELISA: reactivity of normal mouse serum with gangliosides; format: binding; conditions: C57BL/6 female mice 9 weeks old, 100 ng ganglioside per well, absorbance at 490 nm, Fig. 1
Protocol: (§1) A serum was obtained by clotting of blood which was collected from a mouse retroorbitally (eyeground method) and removing the clotted blood by centrifugation.
(§2) ELISA assay was conducted by the conventional method.
100 ng of each ganglioside dissolved in ethanol was added to each well of a 96-well microtiter plate and then allowed to stand at 37°C to remove ethanol completely. A blocking solution comprising a phosphate buffer solution (PBS) containing 5% of bovine serum albumin (BSA) or the like was added to the wells and the plate was incubated at 37°C for 2 hours. After the blocking solution was removed, the collected mouse serum was added to each well and the plate was incubated at 37°C for 1 hour. Each well was washed with a phosphate buffer solution containing 1% of BSA. Anti-mouse IgG, IgM and IgA antibodies which were labeled with peroxidase were added to each well and the plate was incubated at 37°C for 1 hour. Each well was washed with a phosphate buffer solution containing 1% of BSA. A substrate solution containing 400 µg/ml of o-phenylenediamine and 0.001% of hydrogen peroxide was added to each well, and the reaction was conducted at room temperature for 15 minutes. 8N sulfuric acid was added to stop the reaction and then the absorbance of the reaction mixture in each well was measured at 490 nm by using a spectrophotometer for a microtiter plate. […]

[2] = tested on: sera derived from C57BL/6 female mice (9 weeks old) implanted with B16 melanoma cells; assay: ELISA: reactivity of serum of tumor-implanted mice with gangliosides; format: binding, mouse; conditions: for Reactivity of mouse serum: sera of mice implanted with B16 melanoma cells, 2 weeks after implantation, 100 ng ganglioside per well, absorbance at 490 nm, Fig. 2
Protocol: as §1, §2
(§3) 100 ng of each ganglioside dissolved in ethanol was added to each well of a 96-well microtiter plate and then allowed to stand at 37°C to remove ethanol completely. A blocking solution comprising a phosphate buffer solution (PBS) containing 5% of bovine serum albumin (BSA) or the like was added to the wells and the plate was incubated at 37°C for 2 hours. After the blocking solution was removed, the collected mouse serum was added to each well and the plate was incubated at 37°C for 1 hour. Each well was washed with a phosphate buffer solution containing 1% of BSA. Anti-mouse IgG, IgM and IgA antibodies which were labeled with peroxidase were added to each well and the plate was incubated at 37°C for 1 hour. Each well was washed with a phosphate buffer solution containing 1% of BSA. A substrate solution containing 400 µg/ml of o-phenylenediamine and 0.001% of hydrogen peroxide was added to each well, and the reaction was conducted at room temperature for 15 minutes. 8N sulfuric acid was added to stop the reaction and then the absorbance of the reaction mixture in each well was measured at 490 nm by using a spectrophotometer for a microtiter plate.
In Fig. 2, ●, △, ▲ and □ show the data with respect to a serum derived from a tumor the diameter of which is 5 mm or less, 6 mm, 8 mm and 16 mm, respectively.
Values shown in Fig. 1 and Fig. 2 were obtained by subtracting background values and taking the average of three wells.
Values shown in Fig. 3 were obtained by subtracting background values and taking the average of three wells.

[3] = tested on: reactivity of mouse serum with epiGM₃; assay: ELISA: inhibition by acetylneuraminic acid of the reactivity of mouse serum with epiGM₃; format: binding; conditions: sodium N-acetylneuraminate solutions of various concentration added to serum of tumor-implanted mouse; Fig. 4
Protocol: as §3
Sodium N-acetylneuraminate solutions of various concentration were added to the same sera of mice as those used in the above (2). Values shown in Fig. 4 were obtained by subtracting background values and taking the average of three wells. […]

Compound | Reactivity of mouse serum [1] | Reactivity of mouse serum [2] | reaction level / reactivity compared with sera derived from normal mice ([2]; sera of mice implanted with B16 melanoma cells versus normal sera, Fig. 2 versus Fig. 1) | reactivity (rank among GM₃, epiGM₃, GM₄, epiGM₄, GM₅ and epiGM₅) ([2]; serum of the mouse with a 6 mm tumor, diluted 200 times, Fig. 3) | Inhibition of the reactivity of mouse serum with epiGM₃ [3]
CCCCCCCCCCCCCC=CC(O)C(COC1OC(CO)C(OC2OC(CO)C(O)C(OC3(C(=O)O)CC(O)C(NC(C)=O)C(C(O)C(O)CO)O3)C2O)C(O)C1O)NC(=O)CCCCCCCCCCCCCCCCCCCCCCC (stereo not shown) [GM₃, reference compound] | did not react | did not react |  |  | 
CCCCCCCCCCCCCC=CC(O)C(COC1OC(CO)C(OC2OC(CO)C(O)C(OC3(C(=O)O)CC(O)C(NC(C)=O)C(C(O)C(O)CO)O3)C2O)C(O)C1O)NC(=O)CCCCCCCCCCCCCCCCCCCCCCC (stereo not shown) [epiGM₃] | reacted | reacted | remarkably increased; also recorded: stronger | strongest | 
CC(=O)N[C@H]1[C@H]([C@H](O)[C@H](O)CO)OC(O)(C(=O)O)C[C@@H]1O (stereo partly shown) [N-acetylneuraminic acid] |  |  |  |  | inhibited
